In US20220324909A1, “THERAPEUTIC PEPTIDES” (COHBAR, INC., priority 2019, published 2022):
Non-standard residues stand in square brackets, D forms with d. No end group written: not given here.

Key:
C2C12 cells = assay: Caspase 3/7 activity in C2C12 cells; type: cell-based, mouse; conditions: peptide 10 μM, 24 hours, relative to 0.1% DMSO control
Protocol: The effect of the peptides on cell death/survival can be assessed using a caspase-3/7 assay in cultured cells such as mouse myoblast cells. Peptides were initially prepared as 10 mM stock in DMSO, diluted to 1 mM in H2O, and used at a final concentration of 10 μM (0.1% DMSO). […] Staurosporine (Abcam, Cambridge, Mass.) was dissolved at 10 mM in DMSO as a stock solution. Caspase-Glo 3/7 Assay Reagent was purchased from Promega (Madison, Wis.). C2C12 cell line was purchased from American Type Culture Collection (Manassas, Va.). C2C12 cells were grown in DMEM supplemented with 20% FBS with 100 IU/ml penicillin and 100 μg/ml streptomycin. […] C2C12 cells were seeded at 4,000 cells per well on 96-well plates. […] Caspase 3/7 activity was determined using a Caspase-Glo 3/7 Assay kit according to the manufacturer's instructions. Luminescence for each sample well on the plate was measured using a Cytation 3 plate reader (BioTek, Winooski, Vt.). Activity was calculated relative to 0.1% DMSO control.

3T3-L1 mouse adipocytes = assay: Free fatty acid levels in 3T3-L1 mouse adipocytes (Example 12, 10 μM); type: cell-based; conditions: peptide 10 μM, 20-22 h then 3 h with isoproterenol 1 nM
Protocol: The effect of the peptides on fatty acid metabolism can be assessed using an assay of free fatty acid levels in cultured cells such as mouse adipocytes. Peptides were initially prepared as 10 mM stock in DMSO, diluted to 1 mM in H2O, and used at a final concentration of 10 μM (0.1% DMSO). […] Insulin at 100 nM was added to control wells.

Male DIO mice = assay: Metabolic parameters in diet induced obese (DIO) mice, Example 16; type: in vivo, mouse; conditions: 5 mg/kg twice daily intraperitoneal, 10 days, N = 8
Protocol: Male C57BL/6 mice were maintained on a high fat diet for 18 weeks to develop diet induced obesity. Animals were randomized to treatment groups based on blood glucose levels and body weight. The peptides of the invention were administered to groups of male DIO mice twice daily by intraperitoneal injection at a dose of 5 mg/kg/dose for 10 days (N=8 animals per treatment group). An additional group of male DIO mice (n=8) received vehicle (water) alone administered twice daily by intraperitoneal injection. Body weight, blood glucose levels and food intake were monitored. Body mass distribution (fat vs lean) was determined by quantitative whole body NMR prior to dosing and at the end of dosing.

H4-IIE cells = assay: Glucose production in cultured H4-IIE cells and insulin dependence; type: cell-based, rat; conditions: 24 h; for Glucose Production, Percent of Control Activity No Insulin: peptide 10 μM alone, relative to untreated cells; for Glucose Production, Percent of Control Activity With Insulin: peptide 10 μM with 800 μM insulin, relative to insulin treated cells
Method in brief: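 Rat hepatoma cells incubated 24 h with peptides; glucose released into conditioned medium measured colorimetrically at 570 nm. Untreated cells serve as maximal-production reference, with insulin at […] as a modest inhibitor. Values are means of 2-4 independent experiments run in triplicate.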

Apelin Receptor (APJ) [1] = target: T1, Apelin Receptor (APJ) (Homo sapiens, UniProt P35414); assay: cAMP levels in CHO-K1 AGTRL1 Gi cells, single concentration (HitHunter); type: cell-based; set-up: host or cells: CHO-K1 AGTRL1 Gi cells; conditions: peptide 10 μM with 10 μM forskolin, 30 min; 500 nM Pyr-Apelin-13 response = 100%
T1 sequence (P35414 1-380): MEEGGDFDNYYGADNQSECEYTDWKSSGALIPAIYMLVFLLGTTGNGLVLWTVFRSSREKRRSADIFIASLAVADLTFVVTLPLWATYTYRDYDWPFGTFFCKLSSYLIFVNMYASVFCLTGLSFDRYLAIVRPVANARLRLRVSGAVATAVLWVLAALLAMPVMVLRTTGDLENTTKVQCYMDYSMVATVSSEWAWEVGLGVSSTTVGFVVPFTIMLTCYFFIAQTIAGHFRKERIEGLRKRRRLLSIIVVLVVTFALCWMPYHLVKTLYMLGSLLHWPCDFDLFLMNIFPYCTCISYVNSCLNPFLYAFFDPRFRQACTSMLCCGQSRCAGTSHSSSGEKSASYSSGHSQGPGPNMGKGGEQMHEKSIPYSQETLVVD

Apelin Receptor (APJ) [2] = target: T1, Apelin Receptor (APJ); assay: β-Arrestin recruitment in CHO-K1 AGTRL1 β-Arrestin cells (PathHunter); type: cell-based; set-up: host or cells: CHO-K1 AGTRL1 β-Arrestin cell line; conditions: peptide 10 μM, 90 min; 500 nM Apelin-13 response = 100%

| cAMP Levels, Percent of Pyr-Apelin-13 Control Activity (Apelin Receptor (APJ) [1]) [%] | β-Arrestin Recruitment, Percent of Apelin-13 Control Activity (Apelin Receptor (APJ) [2]) [%] | Compound | Caspase 3/7 Activity, Percent of Control Activity (C2C12 cells) [%] | Free Fatty Acid Levels, Percent of Isoproterenol Control Activity (3T3-L1 mouse adipocytes) [%] | Difference from Vehicle Control: Decrease from Baseline in Blood Glucose (Male DIO mice) [mg/dL] | Difference from Vehicle Control: Decrease from Baseline in Body Weight (Male DIO mice) [%] | Difference from Vehicle Control: Decrease from Baseline in Fat Mass (Male DIO mice) [g] | Glucose Production, Percent of Control Activity No Insulin (H4-IIE cells) [%] | Glucose Production, Percent of Control Activity With Insulin (H4-IIE cells) [%] |
| --- | --- | --- | --- | --- | --- | --- | --- | --- | --- |
|  |  | 8 (RRMMGMVFQCLCG[dA]; cysteine pairing not given here) [compound 8] | 97.6 | 34.7 | -16.9 | −8.01 | -3.88 | 78.9 | 102.8 |
|  |  | 10 (RRMMGMVYQCLCG[dA]; cysteine pairing not given here) [compound 10] | 96.6 | 24.9 | -8.37 | −5.47 | -2.16 | 92.2 | 38.2 |
|  |  | 11 (RRMMGMVAQCLCGA) [compound 11] | 99.1 | 59.2 | -4.91 | −4.05 | -2.34 | 96.6 | 57.5 |
|  |  | 12 (RRMMGMVEQCLCG[dA]; cysteine pairing not given here) [compound 12] | 105.1 | 51.3 | -6.75 | −2.89 | -1.73 | 96.4 | 44.8 |
|  |  | 13 (RRMMGMVFQELCG[dA]) [compound 13] | 99.0 | 66.0 |  |  |  | 100.9 | 68 |
|  |  | 14 (RRMMGMVFQCLEG[dA]) [compound 14] | 100.1 | 46.5 |  |  |  | 104.4 | 159.6 |
|  |  | 16 (RRMMGMVFQCLSG[dA]) [compound 16] | 93.1 | 58.8 |  |  |  | 99.8 | 56.8 |
|  |  | 17 (RRMMGMVFQSLSG[dA]) [compound 17] | 92.0 | 77.9 |  |  |  | 101.7 | 95.5 |
|  |  | 18 (RRXXGXVFQCLCGA; (3)..(3) Xaa is Norleucine; (4)..(4) Xaa is Norleucine; (6)..(6) Xaa is Norleucine; (14)..(14) D-Ala) [compound 18] | 93.8 | 77.3 |  |  |  | 103.1 | 140.4 |
|  |  | 19 (RRMVFQCLCG[dA]; cysteine pairing not given here) [compound 19] | 100.1 | 31.0 |  |  |  | 100.8 | 68.9 |
| 109 | 91 | CSCC[C@H](NC(=O)CNC(=O)[C@H](CCSC)NC(=O)[C@H](CCSC)NC(=O)[C@H](CCCNC(=N)N)NC(=O)[C@H](CCCNC(=N)N)NC(=O)[C@@H](N)CCSC)C(=O)N[C@H](C(=O)N[C@@H](Cc1ccccc1)C(=O)N[C@@H](CCC(N)=O)C(=O)N[C@@H](CS)C(=O)N[C@@H](CC(C)C)C(=O)N[C@@H](CS)C(=O)NCC(=O)N[C@@H](CC(C)C)C(=O)O)C(C)C [compound 7] | 109.4 | 34.6 | -20.0 | −3.19 | -0.84 | 54.2 | 64.2 |
| 105 | 40 | CSCC[C@H](NC(=O)CNC(=O)[C@H](CCSC)NC(=O)[C@H](CCSC)NC(=O)[C@H](CCCNC(=N)N)NC(=O)[C@@H](N)CCCNC(=N)N)C(=O)N[C@H](C(=O)N[C@@H](Cc1ccccc1)C(=O)N[C@@H](CCC(N)=O)C(=O)N[C@@H](CO)C(=O)N[C@@H](CC(C)C)C(=O)N[C@@H](CS)C(=O)NCC(=O)N[C@H](C)C(=O)O)C(C)C [compound 15] | 101.6 | 90.8 |  |  |  | 101.4 | 63.9 |
